Assay results from ChEMBL document CHEMBL1127180, “Synthesis and mechanistic studies of a tetrazole-tethered cephalosporin-quinolone hybrid” (1993).
In brackets after ≈: the same amount, converted by molar mass.

Tests used:
Assay type in all cases: functional
Citrobacter freundii [1] = assay: Tested for in vitro antibacterial activity against Citrobacter freundii BS-16
Enterobacter cloacae [2] = assay: Tested for in vitro antibacterial activity against Enterobacter cloacae P99
Escherichia coli [3] = assay: Tested for in vitro antibacterial activity against Escherichia coli 257
Escherichia coli [4] = assay: Tested for in vitro antibacterial activity against Escherichia coli TEM-1
Klebsiella pneumoniae [5] = assay: Tested for in vitro antibacterial activity against Klebsiella pneumoniae A
Pseudomonas aeruginosa [6] = assay: Tested for in vitro antibacterial activity against Pseudomonas aeruginosa 18SH
Pseudomonas aeruginosa [7] = assay: Tested for in vitro antibacterial activity against Pseudomonas aeruginosa 5712
Proteus vulgaris [8] = assay: Tested for in vitro antibacterial activity against Proteus vulgaris ATCC 6380
Staphylococcus aureus [9] = assay: Tested for in vitro antibacterial activity against Staphylococcus aureus Smith
Staphylococcus aureus [10] = assay: Tested for in vitro antibacterial activity against Staphylococcus aureus 67
Staphylococcus aureus [11] = assay: Tested for in vitro antibacterial activity against Staphylococcus aureus 753
Streptococcus pyogenes [12] = assay: Tested for in vitro antibacterial activity against Streptococcus pyogenes 4
Streptococcus pneumoniae [13] = assay: Tested for in vitro antibacterial activity against Streptococcus pneumoniae 6301
Citrobacter freundii [14] = assay: Tested for in vitro antibacterial activity against Citrobacter freundii BS-16; inactive
Enterobacter cloacae [15] = assay: Tested for in vitro antibacterial activity against Enterobacter cloacae P99; inactive
Escherichia coli [16] = assay: Tested for in vitro antibacterial activity against Escherichia coli 257; inactive
Escherichia coli [17] = assay: Tested for in vitro antibacterial activity against Escherichia coli TEM-1; inactive
Klebsiella pneumoniae [18] = assay: Tested for in vitro antibacterial activity against Klebsiella pneumoniae A; inactive
Pseudomonas aeruginosa [19] = assay: Tested for in vitro antibacterial activity against Pseudomonas aeruginosa 18SH; inactive
Pseudomonas aeruginosa [20] = assay: Tested for in vitro antibacterial activity against Pseudomonas aeruginosa 5712; inactive
Proteus vulgaris [21] = assay: Tested for in vitro antibacterial activity against Proteus vulgaris ATCC 6380; inactive
Staphylococcus aureus [22] = assay: Tested for in vitro antibacterial activity against Staphylococcus aureus Smith; inactive
Staphylococcus aureus [23] = assay: Tested for in vitro antibacterial activity against Staphylococcus aureus 753; inactive
Streptococcus pyogenes [24] = assay: Tested for in vitro antibacterial activity against Streptococcus pyogenes 4; inactive
Streptococcus pneumoniae [25] = assay: Tested for in vitro antibacterial activity against Streptococcus pneumoniae 6301; inactive
Staphylococcus aureus [26] = assay: Tested for in vitro antibacterial activity against Staphylococcus aureus 67; inactive

| Compound | MIC (Citrobacter freundii [1]) | MIC (Enterobacter cloacae [2]) | MIC (Escherichia coli [3]) | MIC (Escherichia coli [4]) | MIC (Klebsiella pneumoniae [5]) | MIC (Pseudomonas aeruginosa [6]) | MIC (Pseudomonas aeruginosa [7]) | MIC (Proteus vulgaris [8]) | MIC (Staphylococcus aureus [9]) | MIC (Staphylococcus aureus [10]) | MIC (Staphylococcus aureus [11]) | MIC (Streptococcus pyogenes [12]) | MIC (Streptococcus pneumoniae [13]) | also measured |
| --- | --- | --- | --- | --- | --- | --- | --- | --- | --- | --- | --- | --- | --- | --- |
| O=C(O)c1cn(C2CC2)c2c(F)c(N3CCNCC3)c(F)cc2c1=O | 0.0313 µg/mL (≈ 0.0896 µM) | 0.0078 µg/mL (≈ 0.0223 µM) | 0.0078 µg/mL (≈ 0.0223 µM) | 0.0156 µg/mL (≈ 0.0447 µM) | 0.25 µg/mL (≈ 0.716 µM) | 0.25 µg/mL (≈ 0.716 µM) | 1 µg/mL (≈ 2.86 µM) | 0.0078 µg/mL (≈ 0.0223 µM) | 0.125 µg/mL (≈ 0.358 µM) | 0.5 µg/mL (≈ 1.43 µM) | 0.25 µg/mL (≈ 0.716 µM) | 0.5 µg/mL (≈ 1.43 µM) | 1 µg/mL (≈ 2.86 µM) |  |
| CO/N=C(/C(=O)NC1C(=O)N2C(C(=O)[O-])=C(CSc3nnnn3CC(=O)O)CS[C@H]12)c1csc(N)n1.[Na+] (stereo partly drawn) | 128 µg/mL | > 128 µg/mL | 0.125 µg/mL | 0.125 µg/mL | 0.0625 µg/mL | > 128 µg/mL | 16 µg/mL | ≤ 0.0156 µg/mL | 8 µg/mL | > 128 µg/mL | > 128 µg/mL | 0.0313 µg/mL | 0.0313 µg/mL |  |
| CO/N=C(/C(=O)NC1C(=O)N2C(C(=O)[O-])=C(CO)CS[C@H]12)c1csc(N)n1.[Na+] (stereo partly drawn) | > 128 µg/mL | > 128 µg/mL | 0.25 µg/mL | 0.25 µg/mL | 0.0625 µg/mL | > 128 µg/mL | > 128 µg/mL | 0.0625 µg/mL | 16 µg/mL | > 128 µg/mL | > 128 µg/mL | ≤ 0.0157 µg/mL | 0.0625 µg/mL |  |
| O=C([O-])Cn1nnnc1[S-].[Na+].[Na+] |  |  |  |  |  |  |  |  |  |  |  |  |  | MIC (Citrobacter freundii [14]): > 128 µg/mL; MIC (Enterobacter cloacae [15]): > 128 µg/mL; MIC (Escherichia coli [16]): > 128 µg/mL; MIC (Escherichia coli [17]): > 128 µg/mL; MIC (Klebsiella pneumoniae [18]): > 128 µg/mL; MIC (Pseudomonas aeruginosa [19]): > 128 µg/mL; MIC (Pseudomonas aeruginosa [20]): > 128 µg/mL; MIC (Proteus vulgaris [21]): > 128 µg/mL; MIC (Staphylococcus aureus [22]): > 128 µg/mL; MIC (Staphylococcus aureus [23]): > 128 µg/mL; MIC (Streptococcus pyogenes [24]): > 128 µg/mL; MIC (Streptococcus pneumoniae [25]): > 128 µg/mL; MIC (Staphylococcus aureus [26]): > 128 µg/mL |
| CO/N=C(/C(=O)NC1C(=O)N2C(C(=O)[O-])=C(CSc3nnnn3CC(=O)N3CCN(c4cc5c(cc4F)c(=O)c(C(=O)O)cn5C4CC4)CC3)CS[C@H]12)c1csc(N)n1.[Na+] (stereo partly drawn) | 32 µg/mL | 16 µg/mL | 4 µg/mL | 2 µg/mL | 2 µg/mL | 128 µg/mL | > 128 µg/mL | 4 µg/mL | 4 µg/mL | 64 µg/mL | 128 µg/mL | ≤ 0.0156 µg/mL | ≤ 0.0156 µg/mL |  |
| O=C(O)c1cn(C2CC2)c2cc(N3CCN(C(=O)Cn4nnnc4S)CC3)c(F)cc2c1=O | 4 µg/mL (≈ 8.45 µM) | 2 µg/mL (≈ 4.22 µM) | 2 µg/mL (≈ 4.22 µM) | 2 µg/mL (≈ 4.22 µM) | 32 µg/mL (≈ 67.6 µM) | 32 µg/mL (≈ 67.6 µM) | 128 µg/mL (≈ 270 µM) | 4 µg/mL (≈ 8.45 µM) | 32 µg/mL (≈ 67.6 µM) | 64 µg/mL (≈ 135 µM) | 64 µg/mL (≈ 135 µM) | 64 µg/mL (≈ 135 µM) | 64 µg/mL (≈ 135 µM) |  |
